# Biological target: T1, TNKS2 (Homo sapiens, UniProt Q9H2K2)
# T1 construct: GST-tagged Tnks-2 (873-1166 aa, prepared in-house); made in house
# Experiment: TNKS2 activity ELISA (autoparsylation assay)
# Format: biochemical
# Settings: GST-tagged Tnks-2 (873-1166 aa), luminescence
# Method: Description of the TNKS1 and TNKS2 ELISA Assay
# Biochemical activity testing of TNKS 1 and 2: activity ELISA (Autoparsylation assay)
# For analysis of autoparsylation activity of TNKS 1 and 2 an activity ELISA iss performed: In the first step GST tagged TNKS is captured on a Glutathione coated plate. Then the activity assay with biotinylated NAD is performed in the absence/presence of the compounds. During the enzymatic reaction GST tagged TNKS transfers biotinylated ADP-ribose to itself from biotinylated NAD as co-substrate. For the detection streptavidin-HRP conjugate is added that binds to the biotinylated TNKS and is thereby captured to the plates. The amount of biotinylated resp. autoparsylated TNKS is detected with a luminescence substrate for HRP. The level of the luminescence signal correlats directly with the amount of autoparsylated TNKS and therefore with activity of TNKS.
# The acitivity ELISA is performed in 384 well Glutathione coated microtiter plates (Express capture Glutathione coated plate, Biocat, Heidelberg, Germany). The plates are pre-equilibrated with PBS. Then the plates are incubated with 50 μl 20 ng/well GST-tagged Tnks-1 (1023-1327 aa, prepared in-house), respectively GST-tagged Tnks-2 (873-1166 aa, prepared in-house) in assay buffer (50 mM HEPES, 4 mM Mg-chloride, 0.05% Pluronic F-68, 2 mM DTT, pH 7.7) overnight at 4° C. The plates are washed 3 times with PBS-Tween-20. The wells are blocked by incubation at room temperature for 20 minutes with 50 μl blocking buffer (PBS, 0.05% Tween-20, 0.5% BSA). Afterwards the plates are washed 3 times with PBS-Tween-20. The enzymatic reaction is performed in 50 μl reaction solution (50 mM HEPES, 4 mM Mg-chloride, 0.05% Pluronic F-68, 1.4 mM DTT, 0.5% DMSO, pH 7.7) with10 μM bio-NAD (Biolog, Life science Inst., Bremen, Germany) as co-substrate in the absence or presence of the test compound (10 dilution concentrations) for 1 hour at 30° C. The reaction is stopped by 3 times washing with PBS-Tween-20. For the detection 50 μl of 20 ng/μl Streptavidin, HRP conjugate (MoBiTec, Göttingen, Germany) in PBS/0.05% Tween-20/0.01% BSA are added and the plates are incubated for 30 minutes at room temperature. After three times washing with PBS-Tween-20 50 μl of SuperSignal ELISA Femto Maximum sensitivity substrate solution (ThermoFisherScientific (Pierce), Bonn, Germany) are added. Following a 1 minute incubation at room temperature luminescence signals are measured with an Envision multimode reader (Perkin Elmer LAS Germany GmbH) at 700 nm. The full value used is the inhibitor-free reaction. The pharmacological zero value used is XAV-939 (Tocris) in a final concentration of 5 μM. The inhibitory values (IC50) are determined using either the program Symyx Assay Explorer® or Condosseo® from GeneData.
# T1 sequence (Q9H2K2 873-1166): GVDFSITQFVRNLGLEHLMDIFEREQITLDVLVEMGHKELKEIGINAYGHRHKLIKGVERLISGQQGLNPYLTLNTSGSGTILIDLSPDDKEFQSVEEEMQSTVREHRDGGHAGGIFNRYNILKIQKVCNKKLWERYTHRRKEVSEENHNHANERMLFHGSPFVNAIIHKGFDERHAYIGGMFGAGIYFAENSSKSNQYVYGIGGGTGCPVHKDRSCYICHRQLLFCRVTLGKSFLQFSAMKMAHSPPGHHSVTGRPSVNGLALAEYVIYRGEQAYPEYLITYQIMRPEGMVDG
row,SMILES,IC50 [µM]
1,"CC(C)(O)c1ccc(-c2cc3c(F)cc(F)cc3c(=O)[nH]2)cc1 [Compound A33, 5,7-difluoro-3-[4-(1-hydroxy-1-methyl-ethyl)-phenyl]-2H-isoquinolin-1-one]",< 0.3
2,"C=C(C)c1ccc(-c2cc3ccc(F)cc3c(=O)[nH]2)cc1 [Compound A17, 7-fluoro-3-(4-isopropenyl-phenyl)-2H-isoquinolin-1-one]",< 0.3
3,"Cc1ccc(-c2cc3c(C)cccc3c(=O)[nH]2)cc1 [Compound A29, 5-methyl-3-(p-tolyl)-2H-isoquinolin-1-one]",< 0.3
4,"CC(C)(O)c1ccc(-c2cc3ccc(F)cc3c(=O)[nH]2)cc1 [Compound A6, 7-fluoro-3-[4-(1-hydroxy-1-methyl-ethyl)-phenyl]-2H-isoquinolin-1-one]",< 0.3
5,"CC(C)(OCCO)c1ccc(-c2cc3ccc(F)cc3c(=O)[nH]2)cc1 [Compound A16, 7-fluoro-3-{4-[1-(2-hydroxy-ethoxy)-1-methyl-ethyl]-phenyl}-2H-isoquinolin-1-one]",< 0.3
6,"COC(C)(C)c1ccc(-c2cc3ccccc3c(=O)[nH]2)cc1 [Compound A15, 3-[4-(1-methoxy-1-methyl-ethyl)-phenyl]-2H-isoquinolin-1-one]",< 0.3
7,"Cc1ccc(-c2cc3cc(F)ccc3c(=O)[nH]2)cc1 [Compound A10, 6-fluoro-3-p-tolyl-2H-isoquinolin-1-one]",< 0.3
8,"CC(C)(O)c1ccc(-c2cc3cc(F)ccc3c(=O)[nH]2)cc1 [Compound A5, 6-fluoro-3-[4-(1-hydroxy-1-methyl-ethyl)-phenyl]-2H-isoquinolin-1-one]",< 0.3
9,"Cc1ccc(-c2cc3c(F)cccc3c(=O)[nH]2)cc1 [Compound A12, 5-fluoro-3-p-tolyl-2H-isoquinolin-1-one]",< 0.3
10,"CC(C)(N)c1ccc(-c2cc3ccc(F)cc3c(=O)[nH]2)cc1 [Compound A20, 3-[4-(1-amino-1-methyl-ethyl)phenyl]-7-fluoro-2H-isoquinolin-1-one]",< 0.3
11,"CC(C)(O)c1ccc(-c2cc3ccccc3c(=O)[nH]2)cc1 [Compound A3, 3-[4-(1-hydroxy-1-methyl-ethyl)-phenyl]-2H-isoquinolin-1-one]",< 0.3
12,"CC(C)(O)c1ccc(-c2cc3ccncc3c(=O)[nH]2)cc1 [Compound A24, 3-[4-(1-hydroxy-1-methyl-ethyl)phenyl]-2H-2,7-naphthyridin-1-one]",< 0.3
13,"CC(C)(O)c1ccc(-c2cc3c(F)cccc3c(=O)[nH]2)cc1 [Compound A28, 5-fluoro-3-[4-(1-hydroxy-1-methyl-ethyl)phenyl]-2H-isoquinolin-1-one]",< 0.3
14,"Cn1cc(-c2ccc(-c3cc4ccncc4c(=O)[nH]3)cc2)cn1 [Compound A14, 3-[4-(1-Methyl-1H-pyrazol-4-yl)-phenyl]-2H-[2,7]naphthyridin-1-one]",< 0.3
15,"Cn1cc(-c2ccc(-c3cc4ccc(F)cc4c(=O)[nH]3)cc2)cn1 [Compound A18, 7-fluoro-3-[4-(1-methyl-1H-pyrazol-4-yl)-phenyl]-2H-isoquinolin-1-one]",< 0.3
16,"CC(C)(O)c1ccc(-c2cc3cnccc3c(=O)[nH]2)cc1 [Compound A23, 3-[4-(1-hydroxy-1-methyl-ethyl)phenyl]-2H-2,6-naphthyridin-1-one]",< 0.3
17,"Cc1ccc(-c2cc3ccc(F)cc3c(=O)[nH]2)cc1 [Compound A9, 7-fluoro-3-p-tolyl-2H-isoquinolin-1-one]",< 0.3
18,"CC(C)(O)c1ccc(-c2cc3cccc(F)c3c(=O)[nH]2)cc1 [Compound A27, 8-fluoro-3-[4-(1-hydroxy-1-methyl-ethyl)phenyl]-2H-isoquinolin-1-one]",< 0.3
19,"Cc1ccc(-c2cc3cccc(F)c3c(=O)[nH]2)cc1 [Compound A11, 8-fluoro-3-p-tolyl-2H-isoquinolin-1-one]",< 0.3

# From patent US9376433B2, “(AZA-)isoquinolinone derivatives” (MERCK PATENT GMBH, priority 2012, dated 2016)
